Target: Aldo-keto reductase family 1 member B1 (Homo sapiens, UniProt P15121)
Experiment: Inhibition of aldose reductase

**Q.** How did the IC50 (read-out: IC50) turn out when `O=C(/C=C/c1cc(O)c(O)cc1[N+](=O)[O-])O[C@H](Cc1cc(O)c(O)cc1[N+](=O)[O-])C(=O)O` was run?
**A.** 741 nM

**Q.** For `O=C(/C=C/c1ccc(O)c(O)c1)O[C@H](Cc1cc(O)c(O)cc1[N+](=O)[O-])C(=O)O`, which IC50 (read-out: IC50) is on record?
**A.** 1840 nM

**Q.** How did the IC50 turn out when `O=C(/C=C/c1ccc(O)c(O)c1)O[C@H](Cc1ccc(O)c(O)c1)C(=O)O` [ROSMARINIC ACID] was run?
**A.** 3910 nM

Source: ChEMBL document CHEMBL1157025, “Evaluation of aldose reductase inhibition and docking studies of 6'-nitro and 6',6''-dinitrorosmarinic acids” (Eur J Med Chem, 2010)
